In patent US20170128518A1, “METHODS AND MATERIALS FOR IDENTIFYING AND TREATING MAMMALS RESISTANT TO PROTEASOME INHIBITOR TREATMENTS” (Mayo Foundation for Medical Education and Research, priority 2014, published 2017):

What was measured:
[1] = test system: WM cell lines (WT and BR); assay: Annexin-V apoptosis assay, WM cell lines; type: cell-based, human; settings: 0.64 μmol/l, 12 hours
Procedure: FIGS. 12A-12D are a series of graphs and Western blots showing b-AP15 induction of tumor-specific apoptosis in WM cell lines and primary patient-derived WM cells. FIG. 12A is a graph plotting cell death as a percentage of control cell death for all available WM cell lines (n=6, WT and BR derivatives) after treatment with the indicated concentrations of b-AP15, followed by staining with annexin-V and propidium iodide and then flow cytometry to examine apoptosis. […] Each experiment was conducted a minimum of three times with control cells (no drug treatment) showing a viability ([…] and propidium iodide-negative population) of >85%. Following treatment, the percentage of cells affected by b-AP15 was calculated by normalizing data from treated cells relative to the control (untreated) cells. […]
Apoptosis was measured using the Annexin V binding assay kit from BD Biosciences according to the manufacturer's instructions. […] Fluorescein isothiocycanate (FITC)-labelled Annexin V (5 μl) and propidium iodide (10μ were added to each sample and incubated in the dark for 15 minutes at room temperature. The cells were subsequently analyzed by flow cytometry using BD Accuri, the C6 flow cytometer and its software. Data from 10,000 events per sample were collected and analyzed.

MWCL-1/BR = assay: MTS viability assay, MWCL-1/BR; type: cell-based, human; settings: 72-h MTS assay, MWCL-1B/BR
Procedure: (§1) Twenty thousand cells/200 μl in quadruplicates were incubated with serially diluted b-AP15 (1-1000 nmol/l) in 96-well plates at 37° C. for 72 hours. MTS (3-(4,5-dimethylthiazol-2-yl)-5-(3-carboxymethoxyphenyl)-2-(4-sulfophenyl)-2H-tetrazolium) reagent (Molecular Probes, Eugene, Oreg.) was added at 40 μl/well and the plates were further incubated at 37° C. for 3 hours and the developed color was read at 490 nm using a BioTek synergy HT plate reader against blanks with no cells.

[2] = target: T1, proteasome b2 subunit (trypsin-like activity) (Homo sapiens, UniProt Q99436); assay: Proteasomal activity assay, trypsin-like (LRR-AMC), WM cells; type: biochemical; settings: 10 nM; BCWM.1 and BCWM.1/BR shown
T1 construct: Cells were lysed at 4×10^6 cells/ml in proteasomal activity assay buffer; endogenous in cells; host or cells: BCWM.1 and BCWM.1/BR (lysates)
T1 sequence (Q99436 44-277): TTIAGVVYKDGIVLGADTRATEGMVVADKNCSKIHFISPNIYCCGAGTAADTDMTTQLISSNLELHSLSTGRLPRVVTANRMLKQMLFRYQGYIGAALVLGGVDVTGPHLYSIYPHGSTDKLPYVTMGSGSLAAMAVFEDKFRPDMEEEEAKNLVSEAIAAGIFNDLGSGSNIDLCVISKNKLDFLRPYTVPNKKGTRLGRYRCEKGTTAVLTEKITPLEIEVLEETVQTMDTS
Procedure: FIGS. 17A-17D are a series of graphs plotting the effects of bortezomib (10 nM), carfilzomib (10 nM) and b-AP15 (10 nM) on caspase-like and trypsin-like proteasomal activities, as assessed in three WT and three BR WM cell lines in vitro using the fluorogenic substrates LLE-AMC (caspase-like activity) and LRR-AMC (trypsin-like activity). Reactions were incubated at 37° C. for 1 hour and the fluorescence was measured at 360/460 and expressed as relative fluorescence units (RFU), using BioTek synergy HT plate reader. Data from two representative cell lines (BCWM.1 and its BR subclone) are shown.
Cells were lysed at 4×10^6 cells/ml in proteasomal activity assay buffer [assay buffer; 25 mmol/1 HEPES buffer, pH7.5 containing 0.5 mmol/1 EDTA, 0.05% Nonidet P-40, 0.01% sodium dodecyl sulfate (SDS)] and immediately used in the assay. Enzyme reactions were performed in 96-well plates with 100 μl of final volume containing […] fluorogenic peptide substrates. The substrates used were LLVY-AMC for chymotrypsin like activity, LLE-AMC for caspase-like activity and LRR-AMC for trypsin-like activity. Reactions were incubated at 37° C. for 1 hour and fluorescence was measured at 360/460 using a BioTek synergy HT plate reader (BioTek, Winooski, Vt.).

WT and BR WM cells = assay: Mitochondrial outer membrane permeability (TMRM), WM cell lines; type: cell-based, human
Procedure: Cells were treated with different agents for 48 hours and assessed for MOMP using tetramethylrhodamine methyl ester [TMRM] (Life Technologies). TMRM was directly added to the cell cultures at 100 nmol/1 concentrations and incubated at 37° C. in the dark for 15 minutes. At the end of the incubation, cells were washed twice with cold PBS containing 2% FBS and analyzed. The cells were washed for fluorescence (FL2) and analyzed by BD Accuri, the C6 flow cytometer and its software. Data from at least 20,000 events per sample were collected and analyzed. TMRM-negative (%) cells were calculated to determine % MOMP.

RPCI-WM1 = assay: MTS viability assay, RPCI-WM1; type: cell-based, human; settings: 72-h MTS assay
Procedure: as §1

MWCL-1 cells = assay: MTS viability assay, MWCL-1; type: cell-based, human; settings: 72-h MTS assay
Procedure: as §1

C=CC(=O)N1C/C(=C\c2ccc([N+](=O)[O-])cc2)C(=O)/C(=C/c2ccc([N+](=O)[O-])cc2)C1 [b-AP15]
WM cells experiencing apoptosis [1]: approximately 50%
IC50 (MWCL-1/BR): 3 nM
trypsin-like proteasomal activity [2]: no change in trypsin-like activity
MOMP (WT and BR WM cells): significantly induced
IC50 (RPCI-WM1): 16 nM
IC50 (MWCL-1 cells): 7 nM
